Tested on: C57BL/6 male mice
Assay: Seltzer model of neuropathic pain, Hargreaves' test
Assay type: in vivo, mouse
Description: Neuropathic pain. The mouse Seltzer model of neuropathic pain (Malmberg et al. (1998) Pain 76:215-222) was used with C57BL/6 male mice, in which a partial nerve injury was produced by tying a tight ligature with a 7-0 silk suture around approximately ⅓ to ½ the diameter of the sciatic nerve of one single thigh per mouse. Post-surgery, the mice were allowed to recover for at least two days and then they were studied for several weeks post-surgery for thermal hyperalgesia in the Hargreaves' test. Controls were sham-operated mice in which the sciatic nerve was exposed and elevated but not tied. Following surgery, the mice were tested at day […] and at day 7 post-surgery to confirm that the thermal hyperalgesia had developed.
Following the Seltzer surgery, mice were tested at days 5 and 7 post-surgery to confirm that the thermal hyperalgesia had developed.

Substance: IgG1 Control: negative binding control, IgG1 control (AVASTIN®; Genentech, CA)
- mean percent change from Hargreaves baseline (Table 24, injected Day 7, Day 28): −54.1 ± 3.5%
- mean percent change from Hargreaves baseline (Table 24, injected Day 7, Day 32): −41.9 ± 8.3%
- mean percent change from Hargreaves baseline (Table 24, injected Day 7, Day 35): −43.9 ± 6.8%
- mean percent change from Hargreaves baseline (Table 24, injected Day 7, Day 42): −35.0 ± 6.6%
- mean percent change from Hargreaves baseline (Table 24, injected Day 14, Day 5 after surgery): −60.0 ± 4.8%
- mean percent change from Hargreaves baseline (Table 24, injected Day 14, Day 7): −54.4 ± 6.4%
- mean percent change from Hargreaves baseline (Table 24, injected Day 14, Day 8): −55.3 ± 6.1%
- mean percent change from Hargreaves baseline (Table 24, injected Day 14, Day 10): −52.8 ± 7.2%
- mean percent change from Hargreaves baseline (Table 24, injected Day 14, Day 14): −62.1 ± 5.7%
- mean percent change from Hargreaves baseline (Table 24, injected Day 14, Day 15): −63.0 ± 5.8%
- mean percent change from Hargreaves baseline (Table 24, injected Day 14, Day 17): −58.6 ± 5.7%
- mean percent change from Hargreaves baseline (Table 24, injected Day 14, Day 21): −57.1 ± 4.4%
- mean percent change from Hargreaves baseline (Table 24, injected Day 14, Day 24): −49.5 ± 6.6%
- mean percent change from Hargreaves baseline (Table 24, injected Day 14, Day 28): −53.6 ± 5.4%
- mean percent change from Hargreaves baseline (Table 24, injected Day 14, Day 32): −40.9 ± 13.1%
- mean percent change from Hargreaves baseline (Table 24, injected Day 14, Day 35): −42.9 ± 10.3%
- mean percent change from Hargreaves baseline (Table 24, injected Day 14, Day 39): −39.0 ± 11.4%
- mean percent change from Hargreaves baseline (Table 24, injected Day 14, Day 42): −38.1 ± 12.5%
- mean percent change from Hargreaves baseline (Table 24, injected Day 21, Day 5 after surgery): −55.5 ± 5.0%
- mean percent change from Hargreaves baseline (Table 24, injected Day 21, Day 7): −47.2 ± 4.8%
- mean percent change from Hargreaves baseline (Table 24, injected Day 21, Day 8): −47.9 ± 4.7%
- mean percent change from Hargreaves baseline (Table 24, injected Day 21, Day 10): −55.0 ± 6.7%
- mean percent change from Hargreaves baseline (Table 24, injected Day 21, Day 14): −63.8 ± 4.6%
- mean percent change from Hargreaves baseline (Table 24, injected Day 21, Day 15): −54.5 ± 5.0%
- mean percent change from Hargreaves baseline (Table 24, injected Day 21, Day 17): −52.4 ± 5.3%
- mean percent change from Hargreaves baseline (Table 24, injected Day 21, Day 21): −55.8 ± 3.6%
- mean percent change from Hargreaves baseline (Table 24, injected Day 21, Day 22): −50.6 ± 5.3%
- mean percent change from Hargreaves baseline (Table 24, injected Day 21, Day 24): −44.7 ± 5.7%
- mean percent change from Hargreaves baseline (Table 24, injected Day 21, Day 28): −46.0 ± 7.6%
- mean percent change from Hargreaves baseline (Table 24, injected Day 21, Day 32): −32.8 ± 4.8%
- mean percent change from Hargreaves baseline (Table 24, injected Day 21, Day 35): −39.8 ± 4.5%
- mean percent change from Hargreaves baseline (Table 24, injected Day 21, Day 39): −34.6 ± 10.0%
- mean percent change from Hargreaves baseline (Table 24, injected Day 21, Day 42): −33.9 ± 9.9%
- mean percent change from Hargreaves baseline (Table 25, 50 mg/kg s.c. at day 7, day 5 after surgery): −51.2 ± 5.2%
- mean percent change from Hargreaves baseline (Table 25, 50 mg/kg s.c. at day 7, day 7): −47.6 ± 3.9%
- mean percent change from Hargreaves baseline (Table 25, 50 mg/kg s.c. at day 7, day 9): −36.7 ± 14.6%
- mean percent change from Hargreaves baseline (Table 25, 50 mg/kg s.c. at day 7, day 12): −47.2 ± 5.5%
- mean percent change from Hargreaves baseline (Table 25, 50 mg/kg s.c. at day 7, day 15): −46.7 ± 8.5%
- mean percent change from Hargreaves baseline (Table 25, 50 mg/kg s.c. at day 7, day 19): −28.6 ± 7.5%
- mean percent change from Hargreaves baseline (Table 25, 50 mg/kg s.c. at day 7, day 22): −34.9 ± 7.9%
- mean percent change from Hargreaves baseline (Table 25, 50 mg/kg s.c. at day 7 post-surgery, Baseline): 0.0 ± 0.0%
- mean percent change from Hargreaves baseline (Table 26, 50 mg/kg i.p. at day 7, day 5 after surgery): −55.5 ± 3.8%
- mean percent change from Hargreaves baseline (Table 26, 50 mg/kg i.p. at day 7, day 7): −61.6 ± 1.8%
- mean percent change from Hargreaves baseline (Table 26, 50 mg/kg i.p. at day 7, day 8): −59.3 ± 4.0%
- mean percent change from Hargreaves baseline (Table 26, 50 mg/kg i.p. at day 7, day 9): −51.0 ± 4.2%
- mean percent change from Hargreaves baseline (Table 26, 50 mg/kg i.p. at day 7, day 12): −46.5 ± 6.3%
- mean percent change from Hargreaves baseline (Table 26, 50 mg/kg i.p. at day 7, day 15): −43.3 ± 6.6%
- mean percent change from Hargreaves baseline (Table 26, 50 mg/kg i.p. at day 7 post-surgery, Baseline): 0.0 ± 0.0%
